Measurements from article PMC8940841, “A metabolically stable PET tracer for imaging synaptic vesicle protein 2A: synthesis and preclinical characterization of [^18F]SDM-16” (European Journal of Nuclear Medicine and Molecular Imaging, 2021).
Like-named read-outs stand apart in the source and are kept apart here.

What was measured:
[1] = LEV blocking and displacement PET scans, Lassen plot; format: in vivo, rhesus monkeys (Macaca mulatta); details: male, rhesus monkey, intravenous
Description: Four monkeys were studied.
To examine the in vivo binding specificity, SV2A occupancy, and the extent of nonspecific binding in the monkey brain, we performed the Lassen plot analysis using data from the two baseline scans and one blocking scan in the same monkey.

[2] = Radiation dosimetry from whole-body PET biodistribution; format: in vivo, rhesus monkeys; details: for maximum permissible single-study dosage: urinary bladder wall critical organ, 21 CFR 361.1
Experimental: Two whole-body biodistribution studies were performed in two rhesus monkeys (9.4 kg female and 17.0 kg male) to estimate human organ radiation dosimetry. Scans were carried out on a Biograph mCT (hybrid PET/CT, Siemens Medical Systems, Knoxville, TN) scanner following i.v. injections of 187.6 MBq (5.1 mCi) and 173.9 MBq (4.7 mCi) [^18F]SDM-16, and mass doses of 0.27 µg and 0.24 µg at time of injection, respectively. Monkeys were scanned for about 4 h in a sequence of 22–24 passes from top of the head to the mid-thigh. Scans were reconstructed and visually inspected for organ activity concentrations exceeding background level. The organs included were the brain, heart, liver, gall bladder, spleen, kidneys, and urinary bladder contents. Regions of interest were delineated on these organs, and mean activity values were computed to form TACs.
Within-pass decay correction was removed to reflect the actual activity in each organ, and cumulative activity (Bq^.h/cm^3) computed by integration of the data from the scan. The tail portions beyond the end of the scan were extrapolated assuming only physical decay of the tracer. These values were multiplied by the organ volumes of a standard 55-kg adult female reference and 70-kg adult male mathematical phantom, and then normalized to injected activity to obtain organ residence times (N, h). Final values were then entered into the OLINDA software to obtain absorbed doses in all organs, which were computed with different voiding assumptions.

[3] = Measurement of lipophilicity (octanol / PBS pH 7.4); format: physicochemical; details: octanol/PBS pH 7.4
Experimental: The logP of [^18F]SDM-16 was determined by a method modified from previously published procedures. Briefly, an aliquot of […] (10 µCi) of the radioligand was added to a 2-mL microtube containing 0.8 mL of octanol and 0.8 mL of 1 × phosphate buffered saline (1 × PBS, pH 7.4). The mixture was vortexed for 30 s and then centrifuged at 2000 g for 2 min. A subsample of the octanol (0.1 mL) and 1 × PBS (0.5 mL) layers was evaluated with a gamma counter. The major portion of the octanol layer (0.5 mL) was diluted with another 0.3 mL of octanol, mixed with a fresh portion of 0.8 mL of PBS, vortexed, centrifuged, and analyzed as described above. This process was repeated until consistent log P values were obtained, with five consecutive equilibration procedures being performed for each logP measurement. Four separate measurements were performed for [^18F]SDM-16 on different days.

## Cc1nccn1CN1C[C@@H](c2cc(F)cc([18F])c2)CC1=O [[^18F]SDM-16, (R)-4-(3-fluoro-5-(fluoro-^18F)phenyl)-1-((2-methyl-1H-imidazol-1-yl)methyl)pyrrolidin-2-one]
[1]; brain (caudate), Caudate, LEV 30 mg/kg i.v., read-out: VT (blocking)
  Kp: 7.7
[1]; brain (putamen), Putamen, LEV 30 mg/kg i.v., read-out: VT (blocking)
  Kp: 8.8
[1]; brain (thalamus), Thalamus, LEV 30 mg/kg i.v., read-out: VT (blocking)
  Kp: 8.2
[1]; brain, Lassen plot, read-out: VND
  Kp: 2.54
[2]; 185 MBq (5 mCi)
  total ED of a single-study dosage: 3.9 mSv
[2]; Adrenals, adult female phantom
  mean organ radiation dose estimate: 0.0157 mGv/MBq
[2]; Adrenals, adult male phantom
  mean organ radiation dose estimate: 0.0135 mGv/MBq
[2]; Brain, adult female phantom
  mean organ radiation dose estimate: 0.1032 mGv/MBq
[2]; Brain, adult male phantom
  mean organ radiation dose estimate: 0.0732 mGv/MBq
[2]; Breasts, adult female phantom
  mean organ radiation dose estimate: 0.0087 mGv/MBq
[2]; Breasts, adult male phantom
  mean organ radiation dose estimate: 0.0073 mGv/MBq
[2]; Gall Bladder, Female
  average residence time N: 0.015 h
[2]; Gall Bladder, Male
  average residence time N: 0.021 h
[2]; Gallbladder Wall, adult female phantom
  mean organ radiation dose estimate: 0.0441 mGv/MBq
[2]; Gallbladder Wall, adult male phantom
  mean organ radiation dose estimate: 0.0484 mGv/MBq
[2]; Heart Wall, adult female phantom
  mean organ radiation dose estimate: 0.0158 mGv/MBq
[2]; Heart Wall, adult male phantom
  mean organ radiation dose estimate: 0.0137 mGv/MBq
[2]; Heart, Female
  average residence time N: 0.015 h
[2]; Heart, Male
  average residence time N: 0.017 h
[2]; Kidneys, adult female phantom
  mean organ radiation dose estimate: 0.0454 mGv/MBq
[2]; Kidneys, adult male phantom
  mean organ radiation dose estimate: 0.0478 mGv/MBq
[2]; LLI Wall, adult female phantom
  mean organ radiation dose estimate: 0.0145 mGv/MBq
[2]; LLI Wall, adult male phantom
  mean organ radiation dose estimate: 0.0114 mGv/MBq
[2]; Liver, adult female phantom
  mean organ radiation dose estimate: 0.0538 mGv/MBq
[2]; Liver, adult male phantom
  mean organ radiation dose estimate: 0.0454 mGv/MBq
[2]; Lungs, adult female phantom
  mean organ radiation dose estimate: 0.0116 mGv/MBq
[2]; Lungs, adult male phantom
  mean organ radiation dose estimate: 0.0096 mGv/MBq
[2]; Muscle, adult female phantom
  mean organ radiation dose estimate: 0.0110 mGv/MBq
[2]; Muscle, adult male phantom
  mean organ radiation dose estimate: 0.0093 mGv/MBq
[2]; Osteogenic Cells, adult female phantom
  mean organ radiation dose estimate: 0.0188 mGv/MBq
[2]; Osteogenic Cells, adult male phantom
  mean organ radiation dose estimate: 0.0147 mGv/MBq
[2]; Ovaries, adult female phantom
  mean organ radiation dose estimate: 0.0147 mGv/MBq
[2]; Pancreas, adult female phantom
  mean organ radiation dose estimate: 0.0154 mGv/MBq
[2]; Pancreas, adult male phantom
  mean organ radiation dose estimate: 0.0134 mGv/MBq
[2]; Red Marrow, adult female phantom
  mean organ radiation dose estimate: 0.0120 mGv/MBq
[2]; Red Marrow, adult male phantom
  mean organ radiation dose estimate: 0.0098 mGv/MBq
[2]; Remainder, Female
  average residence time N: 1.504 h
[2]; Remainder, Male
  average residence time N: 1.608 h
[2]; Skin, adult female phantom
  mean organ radiation dose estimate: 0.0087 mGv/MBq
[2]; Skin, adult male phantom
  mean organ radiation dose estimate: 0.0073 mGv/MBq
[2]; Small Intestine, adult female phantom
  mean organ radiation dose estimate: 0.0130 mGv/MBq
[2]; Small Intestine, adult male phantom
  mean organ radiation dose estimate: 0.0116 mGv/MBq
[2]; Spleen, adult female phantom
  mean organ radiation dose estimate: 0.0122 mGv/MBq
[2]; Spleen, adult male phantom
  mean organ radiation dose estimate: 0.0104 mGv/MBq
[2]; Stomach Wall, adult female phantom
  mean organ radiation dose estimate: 0.0125 mGv/MBq
[2]; Stomach Wall, adult male phantom
  mean organ radiation dose estimate: 0.0107 mGv/MBq
[2]; Sum, Female
  average residence time N: 2.621 h
[2]; Sum, Male
  average residence time N: 2.621 h
[2]; Testes, adult male phantom
  mean organ radiation dose estimate: 0.0090 mGv/MBq
[2]; Thymus, adult female phantom
  mean organ radiation dose estimate: 0.0107 mGv/MBq
[2]; Thymus, adult male phantom
  mean organ radiation dose estimate: 0.0089 mGv/MBq
[2]; Thyroid, adult female phantom
  mean organ radiation dose estimate: 0.0101 mGv/MBq
[2]; Thyroid, adult male phantom
  mean organ radiation dose estimate: 0.0098 mGv/MBq
[2]; Total Body, adult female phantom
  mean organ radiation dose estimate: 0.0146 mGv/MBq
[2]; Total Body, adult male phantom
  mean organ radiation dose estimate: 0.0119 mGv/MBq
[2]; ULI Wall, adult female phantom
  mean organ radiation dose estimate: 0.0141 mGv/MBq
[2]; ULI Wall, adult male phantom
  mean organ radiation dose estimate: 0.0119 mGv/MBq
[2]; Urinary Bladder Wall, adult female phantom
  mean organ radiation dose estimate: 0.1368 mGv/MBq
[2]; Urinary Bladder Wall, adult male phantom
  mean organ radiation dose estimate: 0.0762 mGv/MBq
[2]; Urinary Bladder, Female
  average residence time N: 0.193 h
[2]; Urinary Bladder, Male
  average residence time N: 0.143 h
[2]; Uterus, adult female phantom
  mean organ radiation dose estimate: 0.0180 mGv/MBq
[2]; adult female phantom
  Effective Dose: 0.0211 mGv/MBq
  Effective Dose Equivalent: 0.0316 mGv/MBq
[2]; adult male phantom
  Effective Dose: 0.0156 mGv/MBq
  Effective Dose Equivalent: 0.0246 mGv/MBq
[2]; brain, female
  absorbed dose: 0.1032 mGy/MBq
  average residence time N: 0.532 h
[2]; brain, male
  absorbed dose: 0.0732 mGy/MBq
  average residence time N: 0.430 h
[2]; female
  effective dose (ED): 21.1 µSv/MBq
  maximum permissible single-study dosage: 365.6 MBq
[2]; gallbladder wall, female
  absorbed dose: 0.0441 mGy/MBq
[2]; gallbladder wall, male
  absorbed dose: 0.0484 mGy/MBq
[2]; kidneys, female
  absorbed dose: 0.0454 mGy/MBq
  average residence time N: 0.057 h
[2]; kidneys, male
  absorbed dose: 0.0478 mGy/MBq
  average residence time N: 0.067 h
[2]; liver, female
  absorbed dose: 0.0538 mGy/MBq
  average residence time N: 0.305 h
[2]; liver, male
  absorbed dose: 0.0454 mGy/MBq
  average residence time N: 0.335 h
[2]; male
  effective dose (ED): 15.6 µSv/MBq
  maximum permissible single-study dosage: 656.0 MBq
[2]; urinary bladder wall, female
  absorbed dose: 0.1368 mGy/MBq
[2]; urinary bladder wall, male
  absorbed dose: 0.0762 mGy/MBq
[3]
  logP: 1.65 ± 0.05
